These results are taken from ChEMBL document CHEMBL4038312 (J Med Chem, 2017).

Data set [1] is described as follows: physchem. The settings on record: octanol/water, pH 7.4.
Data set [2] is described as follows: physchem.
A short description of data set [3]: Dissociation constant, pKa of the compound. It counts as physicochemical.
Data set [4] in a line: Volume of distribution at steady state in rat at 1 mg/kg, iv. It counts as ADME, organism-based. To be noted: in vivo, read-out: Vdss.
Data set [5] can be described thus: AUC (0 to infinity) in rat at 3 mg/kg, po. It counts as ADME, organism-based. Also noted: dose 3 mg/kg, time infinity, route oral. The settings on record: in vivo.
A short description of data set [6]: Volume of distribution at steady state in dog at 0.1 mg/kg, iv. It counts as ADME, organism-based, Canis lupus familiaris. The settings on record: in vivo, read-out: Vdss.
Another data set can be described thus: in vivo. The settings on record: rat, po, 3 mg/kg.
Data set [7] in a line: Drug excretion in iv dosed bile duct cannulated rat bile after 6 hrs. It counts as ADME, organism-based. The settings on record: read-out: Drug excretion.
Data set [8] can be described thus: Permeability in RRCK cells. It counts as ADME, cell-based, Canis lupus familiaris, MDCKII-LE. To be noted: dog, MDCK; read-out: permeability.
The nature of data set [9]: Solubility of the compound at pH 6.5. The settings on record: buffer. It counts as physicochemical.
The nature of data set [10]: Cmax in rat at 3 mg/kg, po. The settings on record: in vivo. Also noted: dose 3 mg/kg, route oral. It counts as ADME, organism-based.
A short description of data set [11]: Oral bioavailability in dog at […]. To be noted: in vivo. It counts as ADME, organism-based, Canis lupus familiaris.
The nature of data set [12]: Cmax in dog at […], po. It counts as ADME, organism-based, Canis lupus familiaris. Also noted: dose 0.13 mg/kg, route oral. To be noted: in vivo.
Data set [13] in a line: AUC (0 to infinity) in dog at […], po. It counts as ADME, organism-based, Canis lupus familiaris. More on the design: dose 0.13 mg/kg, time infinity, route oral. The settings on record: in vivo.
Data set [14] can be described thus: Oral bioavailability in human at 100 ug. To be noted: in vivo. It counts as ADME, organism-based.
Data set [15] in a line: Cmax in human at 100 ug, po. To be noted: in vivo. More on the design: dose 100 ug, route oral. It counts as ADME.
Data set [16] is described as follows: Cmax in dog at 3 mg/kg, po. It counts as ADME, organism-based, Canis lupus familiaris. Also noted: dose 3 mg/kg, route oral. The settings on record: in vivo.
Data set [17] can be described thus: Volume of distribution at steady state in human at 100 ug, iv. It counts as ADME. To be noted: in vivo, read-out: Vdss.
Data set [18] can be described thus: Apparent permeability from basolateral to apical side in MDCK cells harboring MDR1. It counts as ADME, cell-based, Canis lupus familiaris. The settings on record: dog.
A short description of data set [19]: Tmax in rat at 3 mg/kg, po. It counts as ADME, organism-based. The settings on record: in vivo.
The nature of data set [20]: Tmax in dog at 3 mg/kg, po. It counts as ADME, organism-based, Canis lupus familiaris. The settings on record: in vivo.
In the next data set the test system is Homo sapiens. Description: Unbound Cmax in human at 2400 mg, po. It counts as ADME. The settings on record: in vivo.
Data set [21] is described as follows: Apparent permeability from apical to basolateral side in MDCK cells harboring MDR1. It counts as ADME, cell-based, Canis lupus familiaris. To be noted: dog.
A short description of data set [22]: Basic dissociation constant, pKa of the compound. It counts as physicochemical.
A short description of data set [23]: Oral bioavailability in dog at 3 mg/kg. The settings on record: in vivo. It counts as ADME, organism-based, Canis lupus familiaris.

SMILES strings stand for the structures. In brackets after ≈: the same amount, converted by molar mass.

One may read the logD as the decadic logarithm of the distribution of all forms, ionised or not, between an organic phase and buffer at a given pH. A high value points to a more lipophilic compound. Regarding `N#Cc1cc(S(=O)(=O)Nc2ncns2)ccc1Oc1ccc(C(F)(F)F)cc1-c1cccnn1`, the logD in “physchem [1]” came out at 0.7.
The same measure, in the same setting: with `N#Cc1cc(S(=O)(=O)Nc2ncns2)ccc1Oc1ccc(C(F)(F)F)cc1-c1ccncn1` the figure was 0.9.
What is called pKa is the negative logarithm of the acid dissociation constant. Read a high pKa as a weaker acid or stronger base. In turn, `Cn1nccc1-c1cc(Cl)ccc1Oc1ccc(S(=O)(=O)Nc2nncs2)cc1C#N` registered a pKa in the data set “physchem [2]” of 4.5.
Turning to `O=S(=O)(Nc1cscn1)c1cc(Cl)c(Oc2ccc(C(F)(F)F)cc2-c2ccnnc2)cc1F`, the logD in the data set “physchem [1]” was 1.6. The compound also yielded a pKa in data set [3] of 5.6.
Take `Cn1nccc1-c1cc(Cl)ccc1Oc1ccc(S(=O)(=O)Nc2ncns2)cc1F`: the pKa in the data set “physchem [2]” worked out at 3.5.
`N#Cc1cc(S(=O)(=O)Nc2ncns2)ccc1Oc1ccc(Cl)cc1-c1ccn[nH]1`: in “physchem [1]”, the pH-dependent lipophilicity (logD) was 1.6.
The compound `Cn1nccc1-c1cc(Cl)ccc1Oc1ccc(S(=O)(=O)Nc2ncns2)cc1C#N` gave a pKa in “physchem [2]” of 3.5.
The same measure, in the same setting: the result for `Cn1nccc1-c1cc(Cl)ccc1Oc1cc(F)c(S(=O)(=O)Nc2nncs2)cc1Cl` reads 4.5.
As for `N#Cc1cc(S(=O)(=O)Nc2ncns2)ccc1Oc1ccc(Cl)cc1-c1ccnc(N)c1`, the logD in the data set “physchem [1]” amounted to 1.6.
Still for that read-out and setting: the result for `CCN1CC(n2nccc2-c2cc(Cl)ccc2Oc2cc(F)c(S(=O)(=O)Nc3cscn3)cc2F)C1` reads 1.6.
In general, AUC(0-inf) refers to the area under the concentration-time curve extrapolated to infinity. A lower AUC(0-inf) goes with low exposure. As a reminder, the solubility is the concentration that dissolves in the medium under given conditions. As a reminder, the Cmax is the highest concentration seen after dosing. With `N#Cc1cc(S(=O)(=O)Nc2ncns2)ccc1Oc1ccc(C(F)(F)F)cc1-c1ccnnc1`, the logD in “physchem [1]” is 0.7. Besides, the results for the Vd in [4] and in data set [6] were 1.3 L/kg and 1.2 L/kg, respectively. In data set [5], this compound returned an AUC(0-inf) of 5 ng·h/mL. In addition, the bioavailability in the data set “in vivo” is less than 1%. Further, the dose excreted at 6 h in [7] turned out to be 73%. Further, the Papp in data set [8] is 0.7 ×10⁻⁶ cm/s. For the same compound, in [9], the solubility was more than 300 µM. The compound also yielded a Cmax in data set [10] of 1 ng/mL.
In the data set “physchem [1]”, `N#Cc1cc(S(=O)(=O)Nc2ncns2)ccc1Oc1ccc(Cl)cc1-c1cn[nH]c1N` registered a logD of 1.
As for `CN1CC(n2nccc2-c2cc(Cl)ccc2Oc2cc(F)c(S(=O)(=O)Nc3cscn3)cc2F)C1`, the logD in “physchem [1]” came out at 1.3.
Compound `N#Cc1cc(S(=O)(=O)Nc2ncns2)ccc1Oc1ccc(Cl)cc1-c1cn[nH]c1` showed a logD in “physchem [1]” of 1.7. The compound further yielded a pKa in the data set “physchem [2]” of 3.5. In addition, the bioavailability in data set [11] worked out at 23%. The compound also showed a Cmax in [12] of 18 ng/mL. Moreover, the Vd in [4] came to 2.3 L/kg; in data set [6] it was 0.5 L/kg. For the same compound, the AUC(0-inf) in [13] turned out to be 40 ng·h/mL. Also, the Papp in data set [8] came out at 2.1 ×10⁻⁶ cm/s. In data set [9], this compound yielded a solubility of 259 µM (≈ 119 µg/mL).
With `Cn1nccc1-c1cc(Cl)ccc1Oc1cc(F)c(S(=O)(=O)Nc2ncns2)cc1F`, in “physchem [2]”, the pKa came out at 3.5.
Regarding `Nc1n[nH]cc1-c1cc(C(F)(F)F)ccc1Oc1cc(F)c(S(=O)(=O)Nc2cscn2)cc1Cl`, the logD in “physchem [1]” was found to be 2.2. The compound further showed a pKa in the data set “physchem [2]” of 6.3.
Regarding `Cc1[nH]ncc1-c1cc(C(F)(F)F)ccc1Oc1ccc(S(=O)(=O)Nc2ncns2)cc1C#N`, the logD in “physchem [1]” was 2. In addition, in “physchem [2]”, the pKa was 3.5. In addition, the Vd in [4] came out at 6.3 L/kg; in [6], 1.8 L/kg. In [5], this compound yielded an AUC(0-inf) of 26 ng·h/mL. Moreover, the bioavailability in the data set “in vivo” was less than 5%. Besides, in data set [8], the Papp was 1.1 ×10⁻⁶ cm/s. In data set [9], this compound yielded a solubility of more than 300 µM. For the same compound, the highest level in data set [10] (Cmax) was 4 ng/mL.
For the compound `CN1CC(n2nccc2-c2cc(Cl)ccc2Oc2cc(F)c(S(=O)(=O)Nc3ncns3)cc2F)C1`, the logD in the data set “physchem [1]” is 1.
A word on the Papp B→A: it is the apparent permeability from the basolateral to the apical side of a cell layer. The term Tmax denotes the time at which the peak concentration occurs. A word on the Papp A→B: it is how fast a substance crosses the layer from the apical side. In “physchem [1]”, `Nc1[nH]ncc1-c1cc(Cl)ccc1Oc1cc(F)c(S(=O)(=O)Nc2cscn2)cc1Cl` [PF-05089771] showed a logD of 2.3 to 2.6. The pKa in the data set “physchem [2]” stood at 6.3. Also, the bioavailability in data set [14] is 110%. In addition, the Vd in [6] worked out at 0.2 L/kg; in [17] it was 0.15 L/kg. Further, the values for the Cmax in [15], in [16] and in data set [10] were 11 ng/mL, 998 ng/mL and 541 ng/mL, respectively. Also, the Papp B→A in data set [18] was determined as 6.3 ×10⁻⁶ cm/s. Besides, in data set [8], the Papp is 3.8 ×10⁻⁶ cm/s. For the same compound, the solubility in [9] was less than 0.3 µM. In addition, the Tmax in data set [19] was 2 h; in data set [20] it was 0.9 h. The fCmax in the data set on Homo sapiens was 226 nM. Further, the Papp A→B in data set [21] amounted to 0.7 ×10⁻⁶ cm/s.
`CCN1CC(n2nccc2-c2cc(Cl)ccc2Oc2ccc(S(=O)(=O)Nc3cscn3)cc2C#N)C1` [PF-05150122] registered a logD in the data set “physchem [1]” of 1.4. Further, the pKa was 6.5 in the data set “physchem [2]” and 7.4 in data set [22]. Besides, the bioavailability stood at 52% in data set [14] and 68% in “in vivo”. Moreover, the Vd in [4] came to 29.7 L/kg; in [6] it was 0.9 L/kg; in data set [17], 0.41 L/kg. The Cmax in data set [15] was determined as 0.67 ng/mL; in [10], 92.7 ng/mL. Moreover, the Papp B→A in [18] is 11 ×10⁻⁶ cm/s. Further, the Papp in data set [8] was found to be 3.2 ×10⁻⁶ cm/s. In addition, in data set [9], the solubility is more than 262 µM. Moreover, the Tmax in [19] was determined as 0.3 h. For the same compound, the Papp A→B in [21] is less than 0.5 ×10⁻⁶ cm/s.
In “physchem [1]”, `O=S(=O)(Nc1nncs1)c1cc(Cl)c(Oc2ccc(C(F)(F)F)cc2-c2ccnnc2)cc1F` [PF-05186462] came in with a logD of 0.8 to 0.9. Further, the pKa in “physchem [2]” turned out to be 4.3; in [3], 4. Further, the bioavailability is 54% in data set [23], 101% in data set [14] and 16% in “in vivo”. For the same compound, the Vd in data set [4] was 11 L/kg; in data set [6] it was 0.5 L/kg; in data set [17] it was 0.18 L/kg. The Cmax is 4.8 ng/mL in [15], 2890 ng/mL in data set [16] and 73.2 ng/mL in data set [10]. In data set [18], the Papp B→A is 1.1 ×10⁻⁶ cm/s. Also, the Papp in data set [8] is 0.7 ×10⁻⁶ cm/s. In addition, the solubility in [9] is 286 µM (≈ 152 µg/mL). For the same compound, the Tmax in data set [19] and in data set [20] was 1.5 h in each case. The Papp A→B in data set [21] was less than 0.5 ×10⁻⁶ cm/s.
